Assay results reported in patent US20020143143A1, “Peptides designed for the diagnosis and treatment of rheumatoid arthritis” (priority 1999, published 2002).
Where two headings read alike, the source gives them in different places.

Columns and labels:
RA sera [1] = details: cited from earlier work
RA sera [2] = details: 159/279 RA sera; specificity level of 98.6% using 213 disease control sera; cited from earlier work
[3] = system: anti-filaggrin antibodies in human sera; assay: Western blotting using natural filaggrin; type: binding
Procedure: Natural filaggrin was purified from human skin obtained freshly after abdominoplasty according to the protocol of Simon et al. (1993). The amount of protein was determined by the Bradford protein assay as modified by Peterson (1983) using BSA standard curves. The crude filaggrin preparation was subjected to 15% Laemmli SDS-PAGE using the Bio-Rad mini-gel apparatus. Two-μg protein/cm was loaded in a large slot and electrophoresed under standard conditions. The gel was subsequently electroblotted onto nitrocellulose membrane in 10% methanol, 10 mM CAPS, pH 11.0 during 40 min. The blot was blocked in PBS, 0.05% Tween20, 1% gelatin and cut into 3 mm strips, which were probed with human sera overnight at a 1/100 dilution in PBS, 0.05% Tween20, 0.1% gelatin. As a secondary antibody the anti-human IgG-AP conjugate (Sigma, St Louis, […]) was added at a 1/1000 dilution; visualisation occurred with the NBT/BCIP chromogenic substrate.

[4] = system: anti-filaggrin autoantibodies; details: cited from earlier work
[5] = system: RA specific autoantibodies in human sera; assay: LIA comparison of synthetic peptides with existing peptides and citrullinated recombinant filaggrin (Example 3); type: binding; details: 212 established RA sera, 153 disease control sera (table title: 225 and 154); ROC analysis
Procedure: Streptavidin-complexed peptides were applied directly on a nylon membrane with a plastic backing. Blocked strips were incubated during 1 hour with human sera diluted 1/100 in 1 ml PBS, 0.5% caseine, 0.1% Triton X705, 10 mM MgCl2.6H2O. After washing with PBS, 0.05% Tween20, goat anti-human IgG-AP conjugate (Promega) diluted in PBS, 0.1% caseine, 0.2% Triton X705 was added for 30 min. Strips were developed in 100 mM NaCl, 100 mM Tris-HCl, pH 9.8, 50 mM MgCl2.6H2O substrate buffer containing the chromogenic substrate NBT/BCIP. Reaction was stopped after 30 min by addition of 0.2 N H2SO4. Air-dried strips were scanned using a HP Scanjet 5P scanner and an in-house LIA interpretation software program.
Recombinant human filaggrin was expressed in E. coli and purified by Ni-IMAC chromatography. Citrullination was performed as described by Senshu et al. (1995) using peptidylarginine deiminase (Sigma) at a 1/120 enzyme/substrate ratio during 4h at 37° C.
Three synthetic peptides (IGP1475, 1477 and 1564) described by Girbal-Neuhauser (1999) (patent application WO 99/35167) and the cyclic peptide IGP1546 described in the patent application WO 98/22503, were synthesised and used for comparison with IGP1611, 1646, 1650 and 1651 on LIA.
On the same strips, also citrullinated recombinant E. coli filaggrin was applied. […]

natural filaggrin: Natural filaggrin purified from human skin (crude filaggrin preparation); in b6 isolated from human epidermis
RA sera detected in ELISA (RA sera [1]; 55 RA sera): 47%
healthy controls showing positivity in ELISA (RA sera [1]; healthy controls): 1%
RA sera showing positive reaction on Western blot (RA sera [2]): 37%
sensitivity of Western blot ([3]; 47 sera from patients with early disease (less than 12 months of symptoms)): 25%
specificity of Western blot system ([3]; 153 disease controls): 94%
sensitivity of Western blot ([3]; 212 longstanding RA sera): 41%

recombinant human filaggrin: recombinant human filaggrin, in vitro deiminated by PAD or non-citrullinated (Girbal-Neuhauser et al., 1999)
reactivity with human RA sera in ELISA ([4]; after in vitro deimination by peptidylarginine deiminase (PAD)): reactive
reactivity with human RA sera in ELISA ([4]; non-citrullinated protein): unreactive

Citr. rec. filaggrin: Recombinant human filaggrin expressed in E. coli, citrullinated using peptidylarginine deiminase
Sensitivity at 98% spec. level [5]: 32%
